The numbers were not newly measured in US20140030308A1, “IMPLANTS AND PROCEDURES FOR PROMOTING AUTOLOGOUS STEM CELL GROWTH” (priority 2012, published 2014), which cites them from elsewhere.

The structures appear in SMILES notation.

The conditions of the series: general statement used to time administration before stent placement.

Take `c1cc(CN2CCCNCCNCCCNCC2)ccc1CN1CCCNCCNCCCNCC1` [Prelixafor, 1,1′-[1,4-phenylenebis(methylene)]bis-1,4,8,11-tetraazacyclotetradecane]: the half-life entry was “about 8 hours”.
